# How the values were obtained:
# [1] = tested on: surinam grass; assay: Test B pre/postemergence surinam grass; type: in vivo, Brachiaria decumbens
# In short: (§1)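 Test chemicals in a non-phytotoxic solvent mixture with surfactant were sprayed preemergence onto planted seeds and postemergence onto plants 2 to 18 cm tall (1- to 4-leaf stage). After twelve to sixteen days in a greenhouse, injury was visually rated against untreated controls from 0 (no effect) to 10 (complete control).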
# [2] = tested on: pigweed; assay: Test B pre/postemergence pigweed; type: in vivo, Amaranthus retroflexus
# In short: as §1
# [3] = tested on: velvetleaf; assay: Test B pre/postemergence velvetleaf; type: in vivo, Abutilon theophrasti
# In short: as §1
# [4] = tested on: morningglory; assay: Test B pre/postemergence morningglory; type: in vivo, Ipomoea hederacea
# In short: as §1
# [5] = tested on: crabgrass; assay: Test B pre/postemergence crabgrass; type: in vivo, Digitaria sanguinalis
# In short: as §1
# [6] = tested on: blackgrass; assay: Test B pre/postemergence blackgrass; type: in vivo, Alopecurus myosuroides
# In short: as §1
# [7] = tested on: sugar beet; assay: Test B pre/postemergence sugar beet; type: in vivo, Beta vulgaris
# In short: as §1
# [8] = tested on: bedstraw; assay: Test B pre/postemergence bedstraw; type: in vivo, Galium aparine
# In short: as §1
# [9] = tested on: cocklebur; assay: Test B pre/postemergence cocklebur; type: in vivo, Xanthium strumarium
# In short: as §1
# [10] = tested on: soybean; assay: Test B pre/postemergence soybean; type: in vivo, Glycine max
# In short: as §1
# [11] = tested on: wild oat; assay: Test B pre/postemergence wild oat; type: in vivo, Avena fatua
# In short: as §1
# [12] = tested on: rape; assay: Test B pre/postemergence rape; type: in vivo, Brassica napus
# In short: as §1
# [13] = tested on: purple nutsedge; assay: Test B pre/postemergence purple nutsedge; type: in vivo, Cyperus rotundus
# In short: as §1
# [14] = tested on: wheat; assay: Test B pre/postemergence wheat; type: in vivo, Triticum aestivum
# In short: as §1
# [15] = tested on: giant foxtail; assay: Test B pre/postemergence giant foxtail; type: in vivo, Setaria faberii
# In short: as §1
# [16] = tested on: corn; assay: Test B pre/postemergence corn; type: in vivo, Zea mays
# In short: as §1
# [17] = Postemergence, Rate 62 g/ha, scale 0 to 10, 0 is no effect, 10 is complete control
# [18] = Postemergence, Rate 125 g/ha, scale of 0 to 10 where 0 is no effect and 10 is complete control
# [19] = Preemergence, Rate 125 g/ha, scale of 0 to 10 where 0 is no effect and 10 is complete control
# [20] = Preemergence, Rate 250 g/ha, scale 0 (no effect) to 10 (complete control)
# [21] = Rate 250 g/ha, Postemergence, scale 0 to 10, 0 is no effect, 10 is complete control
# [22] = Rate 500 g/ha, Postemergence, scale 0 to 10, 0 is no effect, 10 is complete control
# [23] = Rate 62 g/ha, Preemergence, scale 0 to 10
# [24] = Rate 500 g/ha, Preemergence, scale 0 to 10 (0 no effect, 10 complete control)
smiles,measurement,setting,value
CC(C)N(C(=O)n1oc(=O)n(CCCCl)c1=O)c1ccccc1 [Compound 750],"Plant response rating, B. signalgrass",[1]; [17],0
same,B. signalgrass plant response rating,[1]; [18],2
same,B. signalgrass plant response rating,"[1]; Preemergence, Rate 62 g/ha, scale of 0 to 10 where 0 is no effect and 10 is complete control",5
same,"Plant response rating, B. signalgrass",[1]; [19],10
same,B. signalgrass plant response rating,[1]; [20],8
same,B. signalgrass plant response rating,[1]; [21],6
same,B. signalgrass plant response rating,[1]; [22],6
same,"Plant response rating, Redroot pigweed",[2]; [17],4
same,Redroot pigweed plant response rating,[2]; [18],7
same,"Plant response rating, Redroot pigweed",[2]; [19],9
same,Redroot pigweed plant response rating,[2]; [20],10
same,Redroot pigweed plant response rating,[2]; [23],7
same,Redroot pigweed plant response rating,[2]; [21],7
same,Redroot pigweed plant response rating,[2]; [22],7
same,"Plant response rating, Velvetleaf",[3]; [17],0
same,Velvetleaf plant response rating,[3]; [18],3
same,"Plant response rating, Velvetleaf",[3]; [19],0
same,Velvetleaf plant response rating,[3]; [20],7
same,Velvetleaf plant response rating,[3]; [23],0
same,Velvetleaf plant response rating,[3]; [21],5
same,Velvetleaf plant response rating,[3]; [22],6
same,Velvetleaf plant response rating,[3]; [24],7
same,"Plant response rating, Morningglory",[4]; [17],3
same,Morningglory plant response rating,[4]; [18],3
same,"Plant response rating, Morningglory",[4]; [19],0
same,Morningglory plant response rating,[4]; [20],6
same,Morningglory plant response rating,[4]; [23],0
same,Morningglory plant response rating,[4]; [21],8
same,Morningglory plant response rating,[4]; [22],10
same,Morningglory plant response rating,[4]; [24],6
same,"Plant response rating, Crabgrass",[5]; [17],7
same,Crabgrass plant response rating,[5]; [18],9
same,"Plant response rating, Crabgrass",[5]; [19],9
same,Crabgrass plant response rating,[5]; [20],9
same,Crabgrass plant response rating,[5]; [23],9
same,Crabgrass plant response rating,[5]; [21],9
same,Crabgrass plant response rating,[5]; [24],10
same,"Plant response rating, Blackgrass",[6]; [17],4
same,Blackgrass plant response rating,[6]; [18],7
same,"Plant response rating, Blackgrass",[6]; [19],8
same,Blackgrass plant response rating,[6]; [20],8
same,Blackgrass plant response rating,[6]; [23],7
same,Blackgrass plant response rating,[6]; [21],7
same,Blackgrass plant response rating,[6]; [22],8
same,"Plant response rating, Sugarbeets",[7]; [17],0
same,Sugarbeets plant response rating,[7]; [18],3
same,"Plant response rating, Sugarbeets",[7]; [19],3
same,Sugarbeets plant response rating,[7]; [20],5
same,Sugarbeets plant response rating,[7]; [23],1
same,Sugarbeets plant response rating,[7]; [21],3
same,Sugarbeets plant response rating,[7]; [22],6
same,"Plant response rating, Bedstraw",[8]; [17],5
same,"Plant response rating, Bedstraw",[8]; [19],0
same,Bedstraw plant response rating,[8]; [20],0
same,Bedstraw plant response rating,[8]; [23],0
same,Bedstraw plant response rating,[8]; [21],7
same,Bedstraw plant response rating,[8]; [22],10
same,"Plant response rating, Cocklebur",[9]; [17],0
same,Cocklebur plant response rating,[9]; [18],0
same,"Plant response rating, Cocklebur",[9]; [19],0
same,Cocklebur plant response rating,[9]; [20],0
same,Cocklebur plant response rating,[9]; [23],0
same,Cocklebur plant response rating,[9]; [21],1
same,Cocklebur plant response rating,[9]; [22],3
same,Cocklebur plant response rating,[9]; [24],0
same,"Plant response rating, Soybean",[10]; [17],2
same,Soybean plant response rating,[10]; [18],6
same,"Plant response rating, Soybean",[10]; [19],0
same,Soybean plant response rating,[10]; [20],5
same,Soybean plant response rating,[10]; [23],0
same,Soybean plant response rating,[10]; [21],7
same,Soybean plant response rating,[10]; [22],7
same,Soybean plant response rating,[10]; [24],5
same,"Plant response rating, Wild oats",[11]; [17],0
same,Wild oats plant response rating,[11]; [18],0
same,"Plant response rating, Wild oats",[11]; [19],5
same,Wild oats plant response rating,[11]; [20],7
same,Wild oats plant response rating,[11]; [23],0
same,Wild oats plant response rating,[11]; [21],0
same,Wild oats plant response rating,[11]; [22],0
same,"Plant response rating, Rape",[12]; [17],0
same,Rape plant response rating,[12]; [18],4
same,"Plant response rating, Rape",[12]; [19],0
same,Rape plant response rating,[12]; [20],8
same,Rape plant response rating,[12]; [23],0
same,Rape plant response rating,[12]; [21],6
same,Rape plant response rating,[12]; [22],7
same,"Plant response rating, Nutsedge",[13]; [17],0
same,Nutsedge plant response rating,[13]; [18],0
same,"Plant response rating, Nutsedge",[13]; [19],0
same,Nutsedge plant response rating,[13]; [20],7
same,Nutsedge plant response rating,[13]; [23],0
same,Nutsedge plant response rating,[13]; [21],7
same,Nutsedge plant response rating,[13]; [24],9
same,"Plant response rating, Wheat",[14]; [17],0
same,Wheat plant response rating,[14]; [18],0
same,"Plant response rating, Wheat",[14]; [19],4
same,Wheat plant response rating,[14]; [20],5
same,Wheat plant response rating,[14]; [23],2
same,Wheat plant response rating,[14]; [21],2
same,Wheat plant response rating,[14]; [22],2
same,"Plant response rating, Giant foxtail",[15]; [17],9
same,Giant foxtail plant response rating,[15]; [18],8
same,"Plant response rating, Giant foxtail",[15]; [19],10
same,Giant foxtail plant response rating,[15]; [20],10
same,Giant foxtail plant response rating,[15]; [23],9
same,Giant foxtail plant response rating,[15]; [21],8
same,Giant foxtail plant response rating,[15]; [22],8
same,Giant foxtail plant response rating,[15]; [24],10
same,"Plant response rating, Corn",[16]; [17],0
same,Corn plant response rating,[16]; [18],0
same,"Plant response rating, Corn",[16]; [19],3
same,Corn plant response rating,[16]; [23],0
same,Corn plant response rating,[16]; [21],0
same,Corn plant response rating,[16]; [22],5
same,Corn plant response rating,[16]; [24],6

# From patent publication US6737383B1, “Herbicidal oxadiazolidines” (priority 1999, dated 2004)
